Measurements: patent US10040749B2, “Opsin-binding ligands, compositions and methods of use” (priority 2011, dated 2018)

Test system: P23H opsin
Assay: Rhodopsin purification and regeneration (P23H cells treated with compound, regenerated with 9-cis-retinal, 480-500 nm absorbance)
Details: 480-500 nm absorbance as fold increase over DMSO control; P23H cells; compound 10 μM

SMILES	Fold Increase Over Control [fold]
CC1=C(CNc2cccc(C)c2)C(C)(C)CCC1 [Compound 2, 3-methyl-N-((2,6,6-trimethylcyclohex-1-enyl)methyl)aniline]	2.0
C[C@H]1CCCC(C)(C)[C@@H]1CNc1cccc(F)c1.Cl [Compound 38, 3-fluoro-N-(((1R,6S)-2,2,6-trimethylcyclohexyl)methyl)aniline hydrochloride]	2.4
CC1=C(CNc2cccc(Cl)c2)C(C)(C)CCC1 [Compound 5, 3-chloro-N-((2,6,6-trimethylcyclohex-1-enyl)methyl)aniline]	1.8
CC1=C(CNc2ccc(F)c(C)c2)C(C)(C)CCC1.Cl [Compound 15, 4-fluoro-3-methyl-N-((2,6,6-trimethylcyclohex-1-enyl)methyl)aniline hydrochloride]	1.6
CC1=C(CNc2cccc(F)c2)C(C)(C)CCC1.Cl [Compound 10, 3-fluoro-N-((2,6,6-trimethylcyclohex-1-enyl)methyl)aniline hydrochloride]	2.1
CC1=C(COc2cccc(C)c2)C(C)(C)CCC1 [Compound 6, 1-methyl-3-((2,6,6-trimethylcyclohex-1-enyl)methoxy)benzene]	1.6
CC1=C(COc2cccc(F)c2)C(C)(C)CCC1 [Compound 7, 1-fluoro-3-((2,6,6-trimethylcyclohex-1-enyl)methoxy)benzene]	2.4
CC1(C)CCCC=C1CNc1cccc(F)c1.Cl [Compound 32, N-((6,6-dimethylcyclohex-1-enyl)methyl)-3-fluoroaniline hydrochloride]	1.7
CC1=C(COc2ccc(F)c(F)c2)C(C)(C)CCC1 [Compound 29, 1,2-difluoro-4-((2,6,6-trimethylcyclohex-1-enyl)methoxy) benzene]	2.4
C[C@H]1CCCC(C)(C)[C@@H]1CNc1cccc(Cl)c1.Cl [Compound 37, 3-chloro-N-(((1R,6S)-2,2,6-trimethylcyclohexyl)methyl)aniline hydrochloride]	2.4
CC1=C(C(O)Cc2ccc(C)c(C)c2)C(C)(C)CCC1 (centres unmarked) [Compound 30, 2-(3,4-dimethylphenyl)-1-(2,6,6-trimethylcyclohex-1-enyl)ethanol]	1.8
CC1=C(COc2cccc(Cl)c2)C(C)(C)CCC1 [Compound 8, 1-chloro-3-((2,6,6-trimethylcyclohex-1-enyl)methoxy)benzene]	2.2
CC1=C(CNc2cccc(C(F)(F)F)c2)C(C)(C)CCC1.Cl [Compound 1, 3-(trifluoromethyl)-N-((2,6,6-trimethylcyclohex-1-enyl)methyl)aniline hydrochloride]	1.8

Same assay, conditions: 480-500 nm absorbance as fold increase over DMSO control; P23H cells; compound 20 μM

SMILES	Fold Increase Over Control [fold]
C[C@H]1CCCC(C)(C)[C@@H]1CNc1cccc(C(F)(F)F)c1.Cl [Compound 12, 3-(trifluoromethyl)-N-(((1R,6S)-2,2,6-trimethylcyclohexyl)methyl)aniline hydrochloride]	2.0
CC1=C(CC(O)c2cccc(C(F)(F)F)c2)C(C)(C)CCC1 (centres unmarked) [Compound 20, 1-(3-(trifluoromethyl)phenyl)-2-(2,6,6-trimethylcyclohex-1-enyl)ethanol]	2.4
CC(=O)/C=C/C1=C(C)CCCC1(C)C [β-ionone, reference compound]	2.4

Same assay, conditions: FIG. 1; P23H opsin treated with 20 μM during mutant protein production, relative to vehicle (DMSO) alone

SMILES	regeneration of 500 nm absorbing pigment upon treatment with retinal
CC(=O)/C=C/C1=C(C)CCCC1(C)C [β-ionone, reference compound]	increase
